Molecules are shown by their SMILES. pIC50: −log10 of the molar value.

One may read the pIC50 as −log10 of the IC50, conventionally taken in molar units.

For one assay, the target named is T1, Serine racemase (Homo sapiens) (UniProt Q9GZT4).
T1 sequence (whole entry): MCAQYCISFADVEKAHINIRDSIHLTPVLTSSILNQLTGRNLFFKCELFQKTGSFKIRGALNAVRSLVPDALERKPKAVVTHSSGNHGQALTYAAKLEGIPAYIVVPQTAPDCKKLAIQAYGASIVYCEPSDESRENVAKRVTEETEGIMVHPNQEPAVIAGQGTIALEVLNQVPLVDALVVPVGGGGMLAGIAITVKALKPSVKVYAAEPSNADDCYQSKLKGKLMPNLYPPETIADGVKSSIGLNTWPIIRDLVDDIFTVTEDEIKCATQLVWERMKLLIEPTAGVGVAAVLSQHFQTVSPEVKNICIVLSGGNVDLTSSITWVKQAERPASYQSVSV
The assay is described as follows: Inhibition of wild-type serine racemase (unknown origin) assessed as residual activity by measuring D-serine level at 1 mM using […] as substrate and PLP as co-factor pretreated for 30 mins followed by substrate and co-factor addition measured after 30 mins relative to control.
As to `COc1cccc(SCCC(=O)OCC(=O)Nc2ccc(NC(C)=O)cc2)c1`, the Activity was determined as 61%.

Regarding `COc1ccccc1CCCC(=O)OCC(=O)Nc1ccc(NC(C)=O)cc1`, the Activity was found to be 76%.

For the compound `CC(OC(=O)CCSc1ccccc1Cl)C(=O)Nc1ccccc1` (centres undefined), the Activity turned out to be 91%.

With `CCc1ccccc1NC(=O)C(C)OC(=O)CCSc1ccccc1Cl` (centres undefined), the Activity is 91%.

For the compound `COc1ccc(SCCC(=O)OCC(=O)Nc2ccc(NC(C)=O)cc2)cc1`, the Activity was 65%.

As for `CC(=O)Nc1ccc(NC(=O)C(C)NC(=O)CCSc2ccccc2Cl)cc1` (centres undefined), the Activity was 52%.

Consider `CC(=O)Nc1ccc(NC(=O)COC(=O)CCSc2cccc(Cl)c2)cc1`, for which the Activity was 100%.

Take `CC(=O)Nc1ccc(NC(=O)C(C)OC(=O)CCSc2ccccc2Cl)cc1` (centres undefined): the Activity is 49%.

`CC(=O)Nc1ccc(NC(=O)CNC(=O)CCSc2ccccc2Cl)cc1`: the Activity was 100%.

As for `COc1ccccc1SCCC(=O)OCC(=O)Nc1ccc(NC(C)=O)cc1`, the Activity was found to be 36%.

Regarding `CC(=O)Nc1ccc(NC(=O)COC(=O)CCOc2ccccc2F)cc1`, the Activity came to 88%.

Take `CC(=O)Nc1ccc(NC(=O)COC(=O)CCSc2ccccc2)cc1`: the Activity is 72%.

Regarding `COc1ccccc1SCCC(=O)NC(C)C(=O)Nc1ccc(NC(C)=O)cc1` (centres undefined), the Activity was 92%.

`CC(=O)Nc1ccc(NC(=O)COC(=O)CCSc2ccccc2Cl)cc1`: the Activity turned out to be 84%.

As for `CC(=O)c1ccc(NC(=O)NNC(=O)Cc2ccc(Cl)c(Cl)c2)cc1`, the Activity was 56%.

On to `CC(=O)Nc1ccc(NC(=O)COC(=O)CCSc2ccccc2F)cc1`, for which the Activity was 55%.

For `COc1ccccc1SCCC(=O)NCC(=O)Nc1ccc(NC(C)=O)cc1`, the Activity is 100%.

On to `COc1ccccc1CCCC(=O)CCC(=O)Nc1ccc(NC(C)=O)cc1`, for which the Activity amounted to 100%.

Another assay concerns the target T2, Serine racemase (Homo sapiens, UniProt Q9GZT4).
T2 sequence (Q9GZT4 whole entry): T1 sequence (whole entry)
Description: Inhibition of wild-type serine racemase (unknown origin) assessed as residual activity by measuring D-serine level using […] as substrate and PLP as co-factor pretreated for 30 mins followed by substrate and co-factor addition measured after 30 mins.
On to `COc1ccccc1SCCC(=O)OCC(=O)Nc1ccc(NC(C)=O)cc1`, for which the pIC50 is 3.08.

Values taken from ChEMBL document CHEMBL4184097, “Design, synthesis, and evaluation of novel inhibitors for wild-type human serine racemase” (Bioorg Med Chem Lett, 2018).
